Test results from patent publication US20110086898A1, “PYRAZOLOOXAZOLE COMPOUND” (Eisai R&D Management Co., Ltd., priority 2009, published 2011).
pIC50: −log10 of the molar value. Each block holds one compound with its values, some of them ahead of it.

Key:
[1] = tested on: stress-related reduction in food intake; conditions: Brain Research, 823: 221-225 (1999); cited from earlier work
[2] = molecular target: T1, human CRFR1 (Homo sapiens, UniProt P34998); test: CRFR1 binding test (SPA competition with 125I-CRF); conditions: membrane fraction of human CRFR1-expressing HEK293 cells, read-out: CRF1 receptor binding capacity IC50
T1 construct: The full-length CRFR1 gene was obtained by PCR by using human brain cDNA library; expressed in transfected cells
T1 sequence (P34998 24-415): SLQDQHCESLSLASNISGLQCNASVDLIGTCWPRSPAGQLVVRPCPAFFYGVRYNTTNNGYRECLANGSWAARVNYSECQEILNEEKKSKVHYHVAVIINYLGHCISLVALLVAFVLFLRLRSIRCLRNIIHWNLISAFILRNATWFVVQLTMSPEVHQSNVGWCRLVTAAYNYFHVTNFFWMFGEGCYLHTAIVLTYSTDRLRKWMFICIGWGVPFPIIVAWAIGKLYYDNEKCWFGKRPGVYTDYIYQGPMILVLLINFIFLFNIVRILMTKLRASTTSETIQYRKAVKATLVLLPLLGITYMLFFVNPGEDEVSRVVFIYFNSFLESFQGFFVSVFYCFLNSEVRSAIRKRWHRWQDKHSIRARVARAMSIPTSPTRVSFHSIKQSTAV
Method: (1) Preparation of CRFR1-Expressing Cells
The membrane fraction of human CRFR1 high-expressing cells was used as the material for a CRFR1 binding experiment. The CRFR1-expressing cells were prepared in the following manner. The full-length CRFR1 gene was obtained by PCR by using human brain cDNA library (QuickClone™, Clontech). The obtained DNA fragment was inserted into a cloning vector and the base sequence was confirmed cDNA having the proper base sequence was linked to an expression vector (pcDNA3.1™, Invitrogen). The CRFR1 expression vector was genetically introduced into HEK293 cell, and the resistant cells which proliferated in culture medium containing G418 (1 mg/ml) were cloned by the limiting dilution method. Out of the cloned cells, cells having high binding capacity between the membrane fraction per unit protein and sauvagine were selected according to the following binding experiment, and the selected cells were used for the experiments.
(2) Preparation of Membrane Fraction
The cloned cells obtained in (1) were collected and suspended in ice-cooled membrane buffer (50 mM Tris-HCl, 5 mM MgCl2, 2 mM EGTA, 1 mM DTT, protease inhibitor cocktail (COMPLETE™, Roche Diagnostics) pH 7.3), and then the cells were disrupted with a Polytron (KINEMATICA) while cooling on ice (level 5, 10 seconds, 2-5 times, ice-cooling) and then centrifuged (2,000 rpm, 5 minutes, 4° C.), followed by collecting the supernatant. Membrane buffer was added to the precipitate, and the mixture was subjected to Polytron treatment (same conditions as mentioned above) and centrifuged (conditions as mentioned above), and the obtained supernatant was collected and combined with the previous supernatant. This was centrifuged (13,000 rpm (18,000×g), 30 minutes, 4° C.) to prepare cell membranes. The precipitated cell membranes were suspended in membrane buffer and disrupted with a Polytron (level 5, 10 seconds, 3-5 times, ice-cooling) to prepare a dispersed suspension. The protein assay was carried out.
The following method (1) or (2) was earned out for use as the cell membrane action.
(1) The above dispersed suspension was diluted with membrane buffer containing 0.1% BSA to a protein concentration of 200 μg/ml, for use as the cell membrane fraction.
(2) The above dispersed suspension was freeze-preserved, and if necessary, thawed, re-dispersed and diluted for use as the cell membrane fraction.
A binding competition experiment with CRF was conducted by the SPA (GE Healthcare) method using a 96-well plate. Five jug of the cell membrane fraction protein, 1 mg of SPA beads and […] ^125I-CRF (Perkin Elmer) were allowed to stand at mom temperature for at least two hours in the presence of a test compound, and the radioactivity of each well after centrifugation (1,200 rpm (260×g), five minutes, room temperature) was measured with a TopCount (registered trademark; Perkin Elmer).
(4) Calculation of Binding Capacity
The radioactivity with addition of a 4,000-fold excess of non-radioactive sauvagine as the nonspecific binding was subtracted from each value, and the resulting value was expressed as a percentage (% of control), with 100% as the radioactivity without addition of the test compound (control).

[3] = tested on: male Balb/c mice; test: Light/dark box test in mice (anxiolytic effect); type: in vivo; conditions: for anxiolytic effect in the light/dark box test in mice: dose 30 mg/kg, oral administration; for Effective Dose: minimum dose significantly prolonging time spent in light box vs vehicle, oral, one hour prior to test, Balb/c mice
Method: Evaluation of Anxiolytic Effect in Light/Dark Box Test in Mice
The light/dark box test in mice was carried out according to a modified method of Belzung C., Misslin R., and Vogel E. et al. (Reference; Behavioural effects of the benzodiazepine receptor partial agonist RO16-6028 in mice, Psychopharmacology, 97, 388-391, 1989). The test apparatus used in this test was a light/dark box including a covered black acrylic box (dark box; 15×10×20 cm), a white acrylic box with top opened (light box; 15×20×20 cm) and a black acrylic tunnel (10×7×4.5 cm) that connects the dark box and the light box and enables a mouse to freely move back and forth between the dark box and light box. In this test apparatus, however, a transparent acrylic plate was used for the front side (20×20 cm) and back side (20×20 cm) of the light box to allow observation of the behavior. After setting illumination so that the light intensity of the floor surface of the light box became 150 Lux, 5-week-old male Balb/c mice (purchased from Nihon Charles River) were introduced into the dark box and the test was started. In the test; the tested compound was suspended in 5% dimethyl sulfoxide, 5% Cremopor EL and 90% physiological saline and orally administered to the test animals one hour prior to the start of the test.
(2) Calculation of Anxiolytic Effect:
The time spent in the light box was measured as an index of the anxiolytic effect, with “spend in the light box” defined as the state in which all limbs of the mice were on the floor of the light box. […] The statistical significance between the vehicle-treated group and the test compound-treated groups was analyzed by one-way layout analysis of variance followed by Dunnett multiple comparison when multiple doses were set for the same test, and by the Mann-Whitney U test when only one dose was set.

[4] = tested on: rat; conditions: Brain Research, 893:29-35 (2001); cited from earlier work
[5] = tested on: Tg2576 transgenic mice; conditions: Journal of Neurochemistry, 108: 165-175 (2009); cited from earlier work
[6] = tested on: limbic system seizure; conditions: Brain Research, 770:89-95; cited from earlier work
[7] = tested on: IBS patients; conditions: Gut 2004, 53:958-964; cited from earlier work
[8] = tested on: ethanol withdrawal rats; conditions: Brain Research, 605:25-32 (1993); cited from earlier work
[9] = tested on: intracerebral amyloid-β; conditions: PNAS 104: 10673-10678 (2007); cited from earlier work
[10] = tested on: ischemic and excitotoxic encephalopathy; conditions: Brain Research, 656: 405-408 (1994); cited from earlier work

Compound: CCN(c1nc(C)cc(N2CC=C(c3cccc(F)c3)CC2)n1)c1ccc(C(C)C)cc1SC [CRA1000]
- stress-related reduction in food intake [1]: inhibit

- pIC50 [2]: 7.00
Compound: CCc1nn2c(-c3c(OC)cc(COC)cc3OC)coc2c1N(CC1CCOCC1)CC1CC1 [Example 3, N-(cyclopropylmethyl)-3-[2,6-dimethoxy-4-(methoxymethyl)phenyl]-6-ethyl-N-(tetrahydro-2H-pyran-4-ylmethyl)pyrazolo[5,1-b][1,3]oxazole-7-amine]

- pIC50 [2]: 7.49
Compound: CCc1nn2c(-c3c(OC)cc(COC)cc3OC)c(C)oc2c1N(CC1CCOCC1)CC1CC1 [Example 5, N-(cyclopropylmethyl)-3-[2,6-dimethoxy-4-(methoxymethyl)phenyl]-6-ethyl-2-methyl-N-(tetrahydro-2H-pyran-4-ylmethyl)pyrazolo[5,1-b][1,3]oxazole-7-amine]
- anxiolytic effect in the light/dark box test in mice [3]: statistically significant effects
- Effective Dose [3]: 30 mg/kg

- pIC50 [2]: 7.37
Compound: CCc1nn2c(-c3c(OC)cc(COC)cc3OC)c(C)oc2c1N(CC(C)C)CC1CCOCC1 [Example 6, 3-[2,6-dimethoxy-4-(methoxymethyl)phenyl]-6-ethyl-N-isobutyl-2-methyl-N-(tetrahydro-2H-pyran-4-ylmethyl)pyrazolo[5,1-b][1,3]oxazole-7-amine]

- pIC50 [2]: 7.68
Compound: CCc1nn2c(-c3c(OC)cc(COC)cc3OC)c(C)oc2c1N(CC1CC1)CC1CC1 [Example 7, N,N-bis(cyclopropylmethyl)-3-[2,6-dimethoxy-4-(methoxymethyl)phenyl]-6-ethyl-2-methylpyrazolo[5,1-b][1,3]oxazole-7-amine]

- pIC50 [2]: 7.11
Compound: CCc1nn2c(-c3c(OC)cc(COC)cc3OC)c(C)oc2c1N(CC1CC1)CC1CCOC1 (stereo not drawn) [Example 8, N-(cyclopropylmethyl)-3-[2,6-dimethoxy-4-(methoxymethyl)phenyl]-6-ethyl-2-methyl-N-(tetrahydrofuran-3-ylmethyl)pyrazolo[5,1-b][1,3]oxazole-7-amine]

- pIC50 [2]: 7.36
Compound: CCOCc1cc(OC)c(-c2c(C)oc3c(N(CC4CC4)CC4CCOC4)c(CC)nn23)c(OC)c1 (stereo not drawn) [Example 9, N-(cyclopropylmethyl)-3-[4-(ethoxymethyl)-2,6-dimethoxyphenyl]-6-ethyl-2-methyl-N-(tetrahydrofuran-3-ylmethyl)pyrazolo[5,1-b][1,3]oxazole-7-amine]

- pIC50 [2]: 7.15
Compound: COCc1cc(OC)c(-c2c(C)oc3c(N(CC4CCOCC4)CC4CC4)c(C)nn23)c(OC)c1 [Example 10, N-(cyclopropylmethyl)-3-[2,6-dimethoxy-4-(methoxymethyl)phenyl]-2,6-dimethyl-N-(tetrahydro-2H-pyran-4-ylmethyl)pyrazolo[5,1-b][1,3]oxazole-7-amine]
- anxiolytic effect in the light/dark box test in mice [3]: statistically significant effects
- Effective Dose [3]: 30 mg/kg

- pIC50 [2]: 7.30
Compound: COCc1cc(OC)c(-c2c(C)oc3c(N(CC(C)C)CC4CCOCC4)c(C)nn23)c(OC)c1 [Example 11, 3-[2,6-dimethoxy-4-(methoxymethyl)phenyl]-N-isobutyl-2,6-dimethyl-N-(tetrahydro-2H-pyran-4-ylmethyl)pyrazolo[5,1-b][1,3]oxazole-7-amine]

- pIC50 [2]: 7.10
Compound: COCc1cc(OC)c(-c2c(C)oc3c(N(CC(C)C)CC4CCOC4)c(C)nn23)c(OC)c1 (stereo not drawn) [Example 12, 3-[2,6-dimethoxy-4-(methoxymethyl)phenyl]-N-isobutyl-2,6-dimethyl-N-(tetrahydrofuran-3-ylmethyl)pyrazolo[5,1-b][1,3]oxazole-7-amine]

- pIC50 [2]: 7.21
Compound: CCOCc1cc(OC)c(-c2c(C)oc3c(N(CC4CCOCC4)CC4CC4)c(C)nn23)c(OC)c1 [Example 13, N-(cyclopropylmethyl)-3-[4-(ethoxymethyl)-2,6-dimethoxyphenyl]-2,6-dimethyl-N-(tetrahydro-2H-pyran-4-ylmethyl)pyrazolo[5,1-b][1,3]oxazole-7-amine]

- pIC50 [2]: 6.92
Compound: CCc1nn2c(-c3c(OC)cc(COC)cc3OC)c(C)oc2c1N(CC1CC1)CC1COCOC1 [Example 14, N-(cyclopropylmethyl)-3-[2,6-dimethoxy-4-(methoxymethyl)phenyl]-N-(1,3-dioxan-5-ylmethyl)-6-ethyl-2-methylpyrazolo[5,1-b][1,3]oxazole-7-amine]

- pIC50 [2]: 7.01
Compound: CCCCN(c1c(CC)nn2c(-c3c(OC)cc(COC)cc3OC)c(C)oc12)C1CCOCC1 [Example 15, N-butyl-3-[2,6-dimethoxy-4-(methoxymethyl)phenyl]-6-ethyl-2-methyl-N-(tetrahydro-2H-pyran-4-yl)pyrazolo[5,1-b][1,3]oxazole-7-amine]

- pIC50 [2]: 6.99
Compound: CCc1nn2c(-c3c(OC)cc(COC)cc3OC)c(C)oc2c1N(CC1CC1)C1CCOCC1 [Example 16, N-(cyclopropylmethyl)-3-[2,6-dimethoxy-4-(methoxymethyl)phenyl]-6-ethyl-2-methyl-N-(tetrahydro-2H-pyran-4-yl)pyrazolo[5,1-b][1,3]oxazole-7-amine]

Compound: CCCN(CC1CC1)c1nc(C)nc(Nc2c(Cl)cc(Cl)cc2Cl)c1Cl [NBI-27914]
- water avoidance stress-related rat catharsis [4]: inhibits
- increased levels of Aβ and Aβ plaque deposition induced by stress [5]: inhibits
- limbic system seizure (convulsion and epilepsy induced by CRF administration) [6]: inhibits

Compound: α-helical CRF (9-41)
- abdominal pain and anxiety [7]: reduces
- colon intestinal hyperkinesis [7]: inhibits
- anxiety behavior in ethanol withdrawal rats [8]: inhibits
- stress-related reduction in food intake [1]: inhibit
- stress-related increase in intracerebral amyloid-β [9]: suppresses
- ischemic and excitotoxic encephalopathy [10]: inhibits
